Data published in patent publication US20060100146A1, “AWAT-related methods and articles” (priority 2004, published 2006).
Values joined by “and” are separate entries in the source; they are usually repeats but may differ in a detail not shown here. Equal entries are not always repeated.

T1: human AWAT2 (hDC4) (Homo sapiens, UniProt Q6E213)
T1 construct: The full-length hDC4 was then sub cloned into the EcoRI site of the pRS423-GP vector; made in house; host or cells: Saccharomyces cerevisiae SCY2056 (dga1Δ lro1Δ are2), galactose-inducible pRS423-GP vector; microsomes used
T1 sequence (Q6E213 1-333): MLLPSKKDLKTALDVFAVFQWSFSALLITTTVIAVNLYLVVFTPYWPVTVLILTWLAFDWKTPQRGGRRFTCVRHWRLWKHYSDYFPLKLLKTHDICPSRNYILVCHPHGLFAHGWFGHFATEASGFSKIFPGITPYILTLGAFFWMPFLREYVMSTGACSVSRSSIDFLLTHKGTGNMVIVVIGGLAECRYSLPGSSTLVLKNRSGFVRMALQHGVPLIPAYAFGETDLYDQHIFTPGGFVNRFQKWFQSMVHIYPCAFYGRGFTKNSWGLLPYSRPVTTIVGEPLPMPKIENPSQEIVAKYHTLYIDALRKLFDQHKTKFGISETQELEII

T2: human AWAT1 (DGA2) (Homo sapiens, UniProt Q58HT5)
T2 construct: The full length DGA2 was sub cloned into the EcoRI and NotI sites of the pRS423-GP vector; made in house; host or cells: Saccharomyces cerevisiae SCY2056 (dga1Δ lro1Δ are2), galactose-inducible pRS423-GP vector; microsomes used
T2 sequence (Q58HT5 1-328): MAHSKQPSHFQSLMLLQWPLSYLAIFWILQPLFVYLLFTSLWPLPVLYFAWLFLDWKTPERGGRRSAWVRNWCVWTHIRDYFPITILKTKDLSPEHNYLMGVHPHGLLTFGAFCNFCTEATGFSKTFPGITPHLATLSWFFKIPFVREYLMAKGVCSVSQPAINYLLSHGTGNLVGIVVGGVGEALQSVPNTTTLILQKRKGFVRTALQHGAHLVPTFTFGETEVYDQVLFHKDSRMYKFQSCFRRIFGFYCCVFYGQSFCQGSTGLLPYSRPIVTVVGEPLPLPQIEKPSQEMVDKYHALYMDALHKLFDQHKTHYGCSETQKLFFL

B1: DGA2: acyl-CoA wax alcohol acyltransferase 1, synonym diacyl-glycerol acyltransferase 2; human enzyme expressed in yeast microsomes (protein, UniProt Q58HT5 1-328, looked up)
Acyl-CoA wax alcohol …: T2 sequence (Q58HT5 1-328)
modifications: yeast microsomes
notes: acyl-CoA wax alcohol acyltransferase 1, synonym diacyl-glycerol acyltransferase 2; human enzyme expressed in yeast microsomes
B2: DGAT2: human diacylglycerol acyltransferase 2, expressed in TG-null yeast; microsomes assayed (protein, UniProt Q96PD7 1-388, looked up)
Diacylglycerol …: MKTLIAAYSGVLRGERQAEADRSQRSHGGPALSREGSGRWGTGSSILSALQDLFSVTWLNRSKVEKQLQVISVLQWVLSFLVLGVACSAILMYIFCTDCWLIAVLYFTWLVFDWNTPKKGGRRSQWVRNWAVWRYFRDYFPIQLVKTHNLLTTRNYIFGYHPHGIMGLGAFCNFSTEATEVSKKFPGIRPYLATLAGNFRMPVLREYLMSGGICPVSRDTIDYLLSKNGSGNAIIIVVGGAAESLSSMPGKNAVTLRNRKGFVKLALRHGADLVPIYSFGENEVYKQVIFEEGSWGRWVQKKFQKYIGFAPCIFHGRGLFSSDTWGLVPYSKPITTVVGEPITIPKLEHPTQQDIDLYHTMYMEALVKLFDKHKTKFGLPETEVLEVN
modifications: yeast microsomes
notes: human diacylglycerol acyltransferase 2, expressed in TG-null yeast; microsomes assayed

Columns and labels:
[1] = biological target: T1, human AWAT2 (hDC4); experiment: In vitro AWAT substrate specificity assay, AWAT2 microsomes; type: biochemical; settings: for Activity of AWAT2 (hDC4) towards various acyl-CoAs / Activity of AWAT2 (hDC4) towards various wax alcohols: 10 μg microsomes, wax ester formed, vector control removed, mean +/- Std. dev., triplicate; for Activity of AWAT2 (hDC4) towards various acyl-CoAs: [14C]cetyl alcohol as acyl acceptor; for Activity of AWAT2 (hDC4) towards various wax alcohols: [14C]oleoyl-CoA as acyl donor
Experimental: (§1) Acyl-CoA wax alcohol acyltransferase (AWAT) assays were performed as above with the following exceptions: 200 μM cetyl alcohol (unlabeled or [^14C]-labeled 10,000 dpm/nmol) was substituted for DAG, oleoyloleate was used as carrier, and reactions were incubated for 20 min in a final volume of 250 μl. After separation by TLC, the spot corresponding to wax ester was cut out and counted. For alcohol and acyl-CoA substrate specificity studies, microsomal preparations from DGA2 (20 μg) and hDC4 (10 μg) were used. Kill reactions and vector controls were included for all experiments. The various wax alcohols and acyl-Co A's were substituted for cetyl alcohol or oleoyl Co A at the concentrations specified above. Activity is presented as pmol/min/mg protein.
(§2) In vitro AWAT assays were performed using microsomal preparations from TG null yeast strains transformed with human AWAT1 (DGA2), AWAT2 (hDC4) or a vector control harboring no insert. AWAT1 (20 μg) and AWAT2 (10 μg) microsomes were assayed as described under Experimental Procedures. Activity is in pmol of wax ester formed per min/mg protein, expressed as a mean±Std. dev. from a representative experiment performed in triplicate. Vector control background has been removed. In vitro determination of alcohol and acyl-CoA substrate specificities were performed with [^14C]oleoyl-CoA and the indicated alcohols or [^14C]cetyl alcohol and the indicated acyl-CoA donors (Table 3A and 3B, respectively). Kill reactions were included for all experiments.

[2] = biological target: T2, human AWAT1 (DGA2); experiment: In vitro AWAT substrate specificity assay, AWAT1 microsomes; type: biochemical; settings: for Activity of AWAT1 (DGA2) towards various acyl-CoAs / Activity of AWAT1 (DGA2) towards various wax alcohols: 20 μg microsomes, wax ester formed, vector control removed, mean +/- Std. dev., triplicate; for Activity of AWAT1 (DGA2) towards various acyl-CoAs: [14C]cetyl alcohol as acyl acceptor; for Activity of AWAT1 (DGA2) towards various wax alcohols: [14C]oleoyl-CoA as acyl donor
Experimental: as §1, §2

[3] = system: wax ester formation from cetyl alcohol and oleoyl-CoA; experiment: In vitro AWAT (acyl-CoA wax alcohol acyltransferase) assay in yeast microsomes; type: biochemical, human
Experimental: (§3) A dilute inoculation of each strain into 500 mL of SC-His+2% galactose+1% raffinose was grown overnight at 30° C. into log phase. Cells were washed and lysed, and microsomes were prepared from a 100,000 g spin, as previously described (39). Protein concentrations were determined (40) and diacylglycerol esterification assays were performed as described previously (17,19,41). In brief, microsomes (100 μg) were preincubated for 5 min at 37° in 100 mM TRIS, pH 7.5 containing 0.25 M sucrose, 1 mM EDTA, 10 mM MgCl2, 20 μM fatty acid free BSA, 160 μM dioleoylglycerol (in 5 μl acetone, final volume 200 μl). The reaction was initiated by the addition of [^14C]oleoyl-CoA (10-20,000 dpm/nmol, 40 μM) and stopped after 10 min by the addition of 4 ml of chloroform:methanol (2:1 v/v). Carrier TAG (10 μg) and internal standard ([^3H]triolein, 30,000 dpm) were added followed by 0.8 ml water to separate phases. The lower chloroform layer containing the lipids was removed, evaporated to dryness, resuspended in 50 μl chloroform and individual lipid classes separated on Varian chromatography paper using a hexane:diethyl ether:acetic acid (170:30:1 v/v) mobile phase. The spot corresponding to TG was cut out and counted.
as §1
(§4) Microsomes from TG-null yeast strains transformed with human DGAT2, DGA2, hDC3, or hDC4 were incubated in the presence of dioleoylglycerol or cetyl alcohol and [^14C]oleoyl-CoA and assayed for esterification as described in Experimental Procedures. Data are expressed as pmol of neutral lipid (TAG or Wax ester) formed per min/mg protein as a mean±Std. dev. DGAT activities are from 3 replicate experiments and AWAT activities are from a representative experiment performed in triplicate. Background levels to the assay from strains transformed with vector control have been subtracted.

[4] = system: TAG formation from dioleoylglycerol and [14C]oleoyl-CoA; experiment: In vitro DGAT (diacylglycerol esterification) assay in yeast microsomes; type: biochemical; settings: microsomes from TG-null yeast expressing the human enzyme; dioleoylglycerol + [14C]oleoyl-CoA; TAG formed; vector control subtracted; mean +/- Std. dev., 3 replicate experiments
Experimental: as §3, §4

[5] = microsomes from TG-null yeast expressing the human enzyme, cetyl alcohol + [14C]oleoyl-CoA, wax ester formed, vector control subtracted, mean +/- Std. dev., triplicate

Molecule | Activity of AWAT2 (hDC4) towards various acyl-CoAs [1] | Activity of AWAT1 (DGA2) towards various acyl-CoAs [2] | Activity of AWAT2 (hDC4) towards various wax alcohols [1] | Activity of AWAT1 (DGA2) towards various wax alcohols [2] | other results
CCCCCCCCCCCCCCCC(=O)SCCNC(=O)CCNC(=O)[C@H](O)C(C)(C)COP(=O)(O)OP(=O)(O)OC[C@H]1O[C@@H](n2cnc3c(N)ncnc32)[C@H](O)[C@@H]1OP(=O)(O)O [Palmitoyl C-16] | 524 +/− 164 pmol/min/mg protein | 390 +/− 121 pmol/min/mg protein | – | – | –
CCCCCCCC/C=C\CCCCCCCC(=O)SCCNC(=O)CCNC(=O)[C@H](O)C(C)(C)COP(=O)(O)OP(=O)(O)OC[C@H]1O[C@@H](n2cnc3c(N)ncnc32)[C@H](O)[C@@H]1OP(=O)(O)O [Oleoyl C-18:1, oleoyl CoA] | 1232 +/− 349 pmol/min/mg protein | 113 +/− 7 pmol/min/mg protein | – | – | Utilization by AWAT1 relative to stearoyl CoA (C18:0) ([2]; cetyl alcohol as acyl acceptor): 20%
CCCCCCCC/C=C\CCCCCCCCO [Oleyl C-18:1] | – | – | 892 +/− 106 pmol/min/mg protein | 247 +/− 23 pmol/min/mg protein | –
CCCCCCCCCCCCCCCCCCO [Stearyl C-18] | – | – | 138 +/− 24 pmol/min/mg protein | 27 +/− 5 pmol/min/mg protein | –
CCCCCCCCCCCCCCCCO [Cetyl (Palmityl) C-16, cetyl alcohol] | – | – | 665 +/− 54 pmol/min/mg protein | 83 +/− 6 pmol/min/mg protein | –
CCCCCCCCCCCCCCCCCCCCO [Arachidyl C-20, arachidyl alcohol] | – | – | 27 +/− 4 pmol/min/mg protein | 22 +/− 4 pmol/min/mg protein | Utilization by AWAT1 relative to decyl alcohol ([2]; oleoyl CoA as acyl donor): about 5%
CCCCCCCCCCO [Decyl C-10, decyl alcohol] | – | – | −50 +/− 277 pmol/min/mg protein | 419 +/− 180 pmol/min/mg protein | AWAT2 activity using the alcohol (in words) ([1]; oleoyl CoA as acyl donor): no activity
CCCCCC/C=C\CCCCCCCCO [Palmitoleyl C-16:1] | – | – | 582 +/− 117 pmol/min/mg protein | 184 +/− 29 pmol/min/mg protein | –
CCCCCC/C=C\CCCCCCCC(=O)SCCNC(=O)CCNC(=O)[C@H](O)C(C)(C)COP(=O)(O)OP(=O)(O)OC[C@H]1O[C@@H](n2cnc3c(N)ncnc32)[C@H](O)[C@@H]1OP(=O)(O)O [Palmitoleoyl C-16:1, palmitoleoyl CoA] | 1125 +/− 220 pmol/min/mg protein | −20 +/− 25 pmol/min/mg protein | – | – | AWAT1 activity using the acyl-CoA (in words) ([2]; cetyl alcohol as acyl acceptor): no activity
CCCCCCCCCCCCCCCCCC(=O)SCCNC(=O)CCNC(=O)[C@H](O)C(C)(C)COP(=O)(O)OP(=O)(O)OC[C@H]1O[C@@H](n2cnc3c(N)ncnc32)[C@H](O)[C@@H]1OP(=O)(O)O [Stearoyl C-18, stearoyl CoA] | 549 +/− 38 pmol/min/mg protein | 656 +/− 39 pmol/min/mg protein | – | – | –
B1 | – | – | – | – | AWAT Activity ([3]; [14C]cetyl alcohol rather than radiolabeled oleoyl CoA as monitor of ester formation): 113 pmol/min/mg; AWAT Activity [3, 5]: 31.7 pmol/min/mg protein and 31.7 +/− 17.4 pmol/min/mg protein; DGAT Activity [4]: 7.8 +/− 3.2 pmol/min/mg protein
B2 | – | – | – | – | AWAT Activity [3, 5]: −11.5 +/− 1.3 pmol/min/mg protein; DGAT Activity [4]: 65.4 pmol/min/mg protein and 65.4 +/− 3.4 pmol/min/mg protein
